Reference: patent publication US20230013669A1, “Antibacterial Treatment Using a Cannabinoid and an Active Agent” (priority 2019, published 2023)
Values joined by “and” are separate entries in the source; they are usually repeats but may differ in a detail not shown here. Equal entries are not always repeated.

Tested on: Acinetobacter baumannii ATCC 19606 (GN_034)
Experiment: Synergy of cannabidiol with cell-wall disrupting agent (CBD MIC in combination, FICI)
Type: cell-based
Conditions: for FICI range: CBD with Spero SPR206
Description: The compounds were stored short term at 4° C.
Analysis was performed using Microsoft Excel.

[1] = Example 6, GN_034, listed as CBD

C=C(C)C1CCC(C)=CC1c1c(O)cc(CCCCC)cc1O (stereo not shown) [Cannabidiol, 2-[3-methyl-6-(1-methylethenyl)-2-cyclohexen-1-yl]-5-pentyl-1,3-benzenediol]
2: FICI (CBD with Spero SPR206 at 0.25 μg/mL, 3rd of 3 experiments, CBD MIC taken as 256 μg/mL) | FICI (CBD with Spero SPR206 at 1 μg/mL, 1st of 3 experiments, CBD MIC taken as 256 μg/mL) | FICI (CBD with Ticarcillin at 8 μg/mL, Acinetobacter baumannii ATCC 19606)
2 µg/mL: CBD MIC with Colistin (Colistin at 0.062 μg/mL, Acinetobacter baumannii ATCC 19606) | CBD MIC with Colistin at concentration 0.0625 μg/mL (Example 3, GN_034)
0.625: FICI (CBD with Ticarcillin at 2 μg/mL, Acinetobacter baumannii ATCC 19606)
32 µg/mL: CBD MIC with Cefepime (Cefepime at 4 μg/mL) | CBD MIC with Ceftazidime (Ceftazidime at 4 μg/mL (Table 66), Acinetobacter baumannii ATCC 19606) | CBD MIC with Ceftazidime (Ceftazidime at […] as headed in Table 64, Acinetobacter baumannii ATCC 19606) | CBD MIC with Cefuroxime at concentration 16 μg/mL (Example 2, GN_034) | CBD MIC with Aztreonam at concentration 4 μg/mL (Example 5, GN_034) | CBD MIC with Aztreonam at concentration 8 μg/mL (Example 5, GN_034) | CBD MIC with Cefepime at concentration 4 μg/mL (Example 5, GN_034)
1 µg/mL: CBD MIC with Colistin (Colistin at 0.25 μg/mL, Acinetobacter baumannii ATCC 19606) | CBD MIC with Colistin (Colistin at […], Acinetobacter baumannii ATCC 19606) | CBD MIC with Colistin at concentration 0.25 μg/mL (Example 3, GN_034) | CBD MIC with Colistin at concentration […] (Example 3, GN_034)
4.004 and 4.002: FICI (CBD with Spero SPR206 at 1 μg/mL, 3rd of 3 experiments, CBD MIC taken as 256 μg/mL)
effective: activity of cannabidiol in combination with Polymyxin B (Example 1) | activity of cannabidiol combined with cefuroxime (Example 2) | activity of cannabidiol combined with colistin (Example 3) | activity of cannabidiol combined with octapeptin MCC_006442 (Example 4) | activity of cannabidiol combined with aztreonam (Example 5) | activity of cannabidiol combined with cefepime (Example 5) | activity of cannabidiol combined with Polymyxin B (Example 6) | activity of cannabidiol in combination with octapeptin MCC_006442 (Example 7) | activity of cannabidiol combined with cefuroxime (Example 12) | activity of cannabidiol combined with colistin (Example 14) | activity of cannabidiol combined with octapeptin MCC_006442 (Example 15) | activity of cannabidiol combined with aztreonam (Example 18) | activity of cannabidiol combined with cefepime (Example 19) | activity of cannabidiol combined with octapeptin C4 (Example 21) | activity of cannabidiol in combination with Spero Potentiator SPR741 (Example 22) | activity of cannabidiol in combination with Spero SPR206 (Example 22) | activity of cannabidiol in combination with octapeptin FADDI-287 (Example 23) | activity of cannabidiol in combination with MCC_8980 (Example 24)
3: FICI (CBD with Spero SPR206 at 0.5 μg/mL, 3rd of 3 experiments, CBD MIC taken as 256 μg/mL)
0.63-16: FICI range (MIC table) (CBD with Ticarcillin, Acinetobacter baumannii ATCC 19606)
0.135: Average FICI score (Example 1, GN_034, cannabidiol + MCC_006636 (Polymyxin B))
>256 µg/mL: CBD MIC with Cefotetan (Cefotetan at 4 μg/mL, Acinetobacter baumannii ATCC 19606) | CBD MIC with Cefotetan (Cefotetan at 8 μg/mL, Acinetobacter baumannii ATCC 19606) | CBD MIC with Cefotetan (Cefotetan at 16 μg/mL, Acinetobacter baumannii ATCC 19606) | CBD MIC with Cefotetan (Cefotetan at 32 μg/mL, Acinetobacter baumannii ATCC 19606) | CBD MIC with Cefotetan (Cefotetan at 64 μg/mL, Acinetobacter baumannii ATCC 19606) | CBD MIC with Cefotetan (Cefotetan at 128 μg/mL, Acinetobacter baumannii ATCC 19606) | CBD MIC with Ceftazidime (Ceftazidime at 0.015 μg/mL as headed in Table 64, Acinetobacter baumannii ATCC 19606) | CBD MIC with Ceftazidime (Ceftazidime at 0.031 μg/mL as headed in Table 64, Acinetobacter baumannii ATCC 19606) | CBD MIC with Ceftazidime (Ceftazidime at 0.062 μg/mL as headed in Table 64, Acinetobacter baumannii ATCC 19606) | CBD MIC with Cefuroxime at concentration 4 μg/mL (Example 2, GN_034) | CBD MIC with Cefuroxime at concentration 8 μg/mL (Example 2, GN_034) | CBD MIC with Aztreonam at concentration 0.5 μg/mL (Example 5, GN_034) | CBD MIC with Aztreonam at concentration 1 μg/mL (Example 5, GN_034) | CBD MIC with Aztreonam at concentration 2 μg/mL (Example 5, GN_034) | CBD MIC with Cefepime at concentration 0.25 μg/mL (Example 5, GN_034) | CBD MIC with Cefepime at concentration 0.5 μg/mL (Example 5, GN_034) | CBD MIC with Cefepime at concentration 1 μg/mL (Example 5, GN_034) | CBD MIC with Cefepime at concentration 2 μg/mL (Example 5, GN_034) | CBD MIC with Polymyxin B at concentration 0.015625 μg/mL (Example 6, GN_034) | CBD MIC with Polymyxin B at concentration 0.03125 μg/mL (Example 6, GN_034) | CBD MIC with Polymyxin B at concentration 0.0625 μg/mL (Example 6, GN_034)
1.5-16: FICI range (3rd of 3 experiments)
1.5: FICI (CBD with Spero SPR206 at […], 3rd of 3 experiments, CBD MIC taken as 256 μg/mL)
16: FICI (CBD with Spero SPR206 at 4 μg/mL, 3rd of 3 experiments, CBD MIC taken as 256 μg/mL) | FICI (CBD with Ticarcillin at 64 μg/mL, Acinetobacter baumannii ATCC 19606)
4 µg/mL: CBD MIC with Colistin (Colistin at 0.031 μg/mL, Acinetobacter baumannii ATCC 19606) | CBD MIC with Colistin at concentration 0.03125 μg/mL (Example 3, GN_034)
4: FICI (CBD with Spero SPR206 at 2 μg/mL, 1st of 3 experiments, CBD MIC taken as 256 μg/mL) | FICI (CBD with Ticarcillin at 16 μg/mL, Acinetobacter baumannii ATCC 19606)
1: FICI (CBD with Spero SPR206 at 0.5 μg/mL, 1st of 3 experiments, CBD MIC taken as 256 μg/mL)
>32 µg/mL: CBD MIC with Cefotetan (Cefotetan at 4 μg/mL) | CBD MIC with Cefotetan (Cefotetan at 8 μg/mL) | CBD MIC with Cefotetan (Cefotetan at 16 μg/mL) | CBD MIC with Cefotetan (Cefotetan at 32 μg/mL) | CBD MIC with Cefotetan (Cefotetan at 64 μg/mL) | CBD MIC with Cefotetan (Cefotetan at 128 μg/mL) | CBD MIC with Ceftazidime (Ceftazidime at 0.5 μg/mL (Table 66), Acinetobacter baumannii ATCC 19606) | CBD MIC with Ceftazidime (Ceftazidime at 1 μg/mL (Table 66), Acinetobacter baumannii ATCC 19606) | CBD MIC with Ceftazidime (Ceftazidime at 2 μg/mL (Table 66), Acinetobacter baumannii ATCC 19606)
0.5: FICI (CBD with Spero SPR206 at 0.25 μg/mL, 1st of 3 experiments, CBD MIC taken as 256 μg/mL)
0.0625 µg/mL: CBD MIC with Cefuroxime at concentration 64 μg/mL (Example 2, GN_034)
1.0625: FICI (CBD with Ticarcillin at 4 μg/mL, Acinetobacter baumannii ATCC 19606)
16 µg/mL and 8 µg/mL: CBD MIC with Polymyxin B at concentration […] [1]
0.001 µg/mL: CBD MIC with Ceftazidime (Ceftazidime at 0.5 μg/mL as headed in Table 64, Acinetobacter baumannii ATCC 19606) | CBD MIC with Ceftazidime (Ceftazidime at 16 μg/mL (Table 66), Acinetobacter baumannii ATCC 19606) | CBD MIC with Colistin (Colistin at 1 μg/mL, Acinetobacter baumannii ATCC 19606) | CBD MIC with Ticarcillin (Ticarcillin at 16 μg/mL, Acinetobacter baumannii ATCC 19606) | CBD MIC with Ticarcillin (Ticarcillin at 32 μg/mL, Acinetobacter baumannii ATCC 19606) | CBD MIC with Ticarcillin (Ticarcillin at 64 μg/mL, Acinetobacter baumannii ATCC 19606)
0.5 µg/mL: CBD MIC with Spero SPR206 (Spero SPR206 at 1 μg/mL, 3rd of 3 experiments, listed as CBD)
16 µg/mL: CBD MIC with Cefepime (Cefepime at 8 μg/mL) | CBD MIC with Ceftazidime (Ceftazidime at 0.25 μg/mL as headed in Table 64, Acinetobacter baumannii ATCC 19606) | CBD MIC with Ceftazidime (Ceftazidime at 8 μg/mL (Table 66), Acinetobacter baumannii ATCC 19606) | CBD MIC with Cefepime at concentration 8 μg/mL (Example 5, GN_034) | CBD MIC with Octapeptin C4 (Octapeptin C4 at 2 μg/mL, listed as CBD)
YES: Synergy (Example 1, GN_034, cannabidiol + MCC_006636 (Polymyxin B), synergy when FICI≤0.5)
8 µg/mL and 4 µg/mL: CBD MIC with Polymyxin B at concentration 0.25 μg/mL [1]
8: FICI (CBD with Spero SPR206 at 2 μg/mL, 3rd of 3 experiments, CBD MIC taken as 256 μg/mL) | FICI (CBD with Spero SPR206 at 4 μg/mL, 1st of 3 experiments, CBD MIC taken as 256 μg/mL) | FICI (CBD with Ticarcillin at 32 μg/mL, Acinetobacter baumannii ATCC 19606)
16 µg/mL and 32 µg/mL: CBD MIC with Cefuroxime at concentration 32 μg/mL (Example 2, GN_034, listed as CBD)
0.25: FICI (CBD with Spero SPR206 at […], 1st of 3 experiments, CBD MIC taken as 256 μg/mL)
0.0009766 µg/mL: CBD MIC with Cefuroxime at concentration 128 μg/mL (Example 2, GN_034) | CBD MIC with Colistin at concentration 1 μg/mL (Example 3, GN_034) | CBD MIC with Aztreonam at concentration 16 μg/mL (Example 5, GN_034) | CBD MIC with Polymyxin B at concentration 0.5 μg/mL (Example 6, GN_034)
0.25-8: FICI range (1st of 3 experiments)
